Results: patent US20040014142A1, “Differential diagnosis of neurodegeneration” (INNOGENETICS N.V., priority 1998, published 2004)

Tests used:
tau = conditions: in vivo
Protocol: Total tau was measured with the tau antigen test, using AT120 as capturing antibody and biotinylated HT7-BT2 as detector antibody (INNOTEST hTau antigen, Innogenetics, Gent, Belgium).
All patients underwent a thoroughly clinical evaluation at the time of diagnosis. Parental informed consent was available.
(§1) Lumbar punctures were performed for routine analysis either at baseline for diagnostic work-up or just prior to the IT administration of chemotherapy. Five ml of CSF was collected in different polypropylene tubes. One sample was centrifuged immediately at 1500 rpm for 2 minutes to eliminate cells and other insoluble material. The supernatant was stored at −70° C. for subsequent analysis. The number of freeze/thaw cycles was restricted to a minimum. Routine CSF measurement included cytology, protein concentration, glucose, etc.

neuromodulin = assay: CSF neuromodulin level after chemotherapy of children (sandwich ELISA NM2/NM4); type: in vivo, human; conditions: child with manifest neurotoxicity and diplegia after MTX; exceeded highest standard
Protocol: Neuromodulin was also measured with a sandwich-type ELISA, using two epitope-specific monoclonal antibodies (NM2, NM4; Oestreicher et al., 1994). NM2 was selected as capturing antibody, biotinylated NM4 as detector antibody. Recombinant neuromodulin was used as standard.
as §1

mice = assay: Titer after immunization of mice with α-synuclein (coating ELISA); type: in vivo
Protocol: Alpha-synuclein was purified from 3 liters of induced E. coli cultures resulting in purification of more than 10 mg α-synuclein (more than 90% pure estimated from coumassie and silverstained gels). The protein was injected into mice following several immunization schemes (Table 3). After 4 injections the titer to α-synuclein was evaluated in a coating ELISA.

[1] = animal 309 (m2), 1°: 50 μg α-synuclein, 2°: 5 μg peptide (IGP1463)

| CSF tau level (tau) [pg/mL] | Compound | CSF neuromodulin level (neuromodulin) [pg/mL] | Estimated titer in direct coating (mice; animal 308 (m4), 50 μg protein) | Estimated titer in direct coating (mice; [1]) | titer on peptide (mice; [1]) | Estimated titer in direct coating (mice; animal 309 (m4), 1°: 50 μg α-synuclein, 2°: 5 μg peptide (IGP1463)) | Estimated titer in direct coating (mice; animal 312 (m2), 5 μg α-synuclein protein) | Estimated titer in direct coating (mice; animal 312 (m3), 5 μg α-synuclein protein) | Estimated titer in direct coating (mice; animal 313 (m2), 1°: 50 μg protein, 2°: 5 μg protein) | titer to α-synuclein (serum dilution resulting in OD value twice the background) (mice; six mice, after 4 injections) |
| --- | --- | --- | --- | --- | --- | --- | --- | --- | --- | --- |
| > 1500 | CN(Cc1cnc2nc(N)nc(N)c2n1)c1ccc(C(=O)N[C@@H](CCC(=O)O)C(=O)O)cc1 [MTX, methotrexate] | > 8000 | – | – | – | – | – | – | – | – |
| – | α-synuclein | – | 250000 | 512000 | (titer of 2000 on peptide) | 128000 | 100000 | >512000 | 2500000 | above 100000 |
